Source: paper PMC3929664, “A Panel of Diverse Assays to Interrogate the Interaction between Glucokinase and Glucokinase Regulatory Protein, Two Vital Proteins in Human Disease” (PLoS ONE, 2014)
Counter-ions that a name gives are not always drawn.

Biological target: T1, GCK enzymatic reaction inhibited by GKRP (recombinant human GCK and GKRP) (Homo sapiens, UniProt P35557+Q14397)
T1 construct: made in house
T1 sequence (P35557 1-465): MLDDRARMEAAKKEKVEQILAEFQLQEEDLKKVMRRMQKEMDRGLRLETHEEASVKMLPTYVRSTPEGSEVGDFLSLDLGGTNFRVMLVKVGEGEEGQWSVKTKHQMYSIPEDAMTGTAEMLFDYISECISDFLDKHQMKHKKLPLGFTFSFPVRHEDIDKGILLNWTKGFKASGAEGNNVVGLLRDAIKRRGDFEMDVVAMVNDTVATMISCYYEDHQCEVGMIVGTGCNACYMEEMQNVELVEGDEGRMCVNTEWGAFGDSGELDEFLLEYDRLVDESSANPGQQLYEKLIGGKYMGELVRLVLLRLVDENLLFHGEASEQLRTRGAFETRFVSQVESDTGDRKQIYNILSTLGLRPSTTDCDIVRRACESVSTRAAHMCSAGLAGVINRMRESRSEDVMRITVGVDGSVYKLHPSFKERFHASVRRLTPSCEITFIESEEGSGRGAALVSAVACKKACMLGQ
T1 sequence (Q14397 1-625): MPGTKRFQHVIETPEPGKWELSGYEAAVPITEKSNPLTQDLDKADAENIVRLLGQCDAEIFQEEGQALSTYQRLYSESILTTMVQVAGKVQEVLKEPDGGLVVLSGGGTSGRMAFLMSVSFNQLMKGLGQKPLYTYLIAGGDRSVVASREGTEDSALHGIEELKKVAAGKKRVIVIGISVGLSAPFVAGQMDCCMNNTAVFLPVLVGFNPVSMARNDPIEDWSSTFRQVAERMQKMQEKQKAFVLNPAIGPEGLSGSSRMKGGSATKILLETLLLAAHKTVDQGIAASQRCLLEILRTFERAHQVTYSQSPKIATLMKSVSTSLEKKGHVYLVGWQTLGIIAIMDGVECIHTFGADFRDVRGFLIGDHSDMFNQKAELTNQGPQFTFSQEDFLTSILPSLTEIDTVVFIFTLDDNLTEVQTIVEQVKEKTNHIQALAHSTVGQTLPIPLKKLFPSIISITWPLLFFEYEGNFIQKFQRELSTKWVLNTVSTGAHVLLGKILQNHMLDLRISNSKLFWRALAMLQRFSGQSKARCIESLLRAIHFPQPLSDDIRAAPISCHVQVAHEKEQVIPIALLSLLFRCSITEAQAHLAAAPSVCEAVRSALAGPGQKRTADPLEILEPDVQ
Experiment: Bioluminescence assay (ADP-Glo) of the GCK enzyme reaction with GKRP
Assay type: biochemical
Conditions: for LOPAC1280 screen outcome: 2 µM S6P; for response across formats (ADP only, GCK only, GCK-GKRP): 0.04 mM ADP, 4 nM GCK, 15 nM GCK with 15 nM GKRP
Description: A luminescence-based assay was developed for detection of ADP generation by recombinant GST-GCK (ADP-Glo™ Kinase Assay; Promega). Final reaction conditions included 25 mM HEPES, 25 mM KCl, 2 mM MgCl2, 1 mM DTT, 0.025% BSA, 0.01% Tween-20, 5 mM glucose, and concentrations of GST-GCK and FLAG-GKRP as indicated, and the reaction was initiated by addition of ATP to a final concentration of 0.4 mM. The reaction was terminated and luminescence generated using ADP-Glo™ Reagent and Kinase Detection Reagent (both Promega). In 1536-well plate format, luminescence enzyme assay buffer was dispensed (2 µl/well) using a BioRAPTR into white 1536-well medium binding plates and initiated by addition of 1 µl 1.2 mM ATP. After lidded incubation for the times indicated at room temperature, 2.5 µl of ADP-Glo™ Reagent was added to each well and plates were incubated with lidding for 60 minutes at room temperature. Following 5 µl addition per well of Kinase Detection Reagent, plates were incubated with lidding for a further 30 minutes at room temperature before luminescent detection using a ViewLux Microplate Imager (PerkinElmer). For the LOPAC^1280 library screen, column 1 was all components with DMSO (maximum signal) and column 3 was no GCK with DMSO (minimum signal). These two control columns were used for data normalization. The final HTS protocol is in Table S3, and the data have been deposited in PubChem (AID 743206).
S6P, F1P, and glucose were dissolved in water; GKAs were dissolved in DMSO.
The firefly luciferase enzyme utilizes luciferin and ATP to generate bioluminescence, and the coupling of ATP-dependent kinases to luciferase activity has enabled kinase activity to be measured quantitatively by luminescence measurements in high-throughput screens. The ADP-Glo™ assay, utilizing a two-step luciferase-based ADP-detection protocol, was employed to measure GCK activity ( Figure 1C ). Initial validation was carried out in 384-well plate format, and focused on GCK in the absence of GKRP to test suitability of the ADP-Glo™ format for the GCK enzyme. A titration of 14 GCK concentrations (1.5–100 nM; n = 8 for each concentration) was assessed at 5 mM glucose and 0.4 mM ATP at pH 7.4. The reaction was incubated for 45 minutes at room temperature. To estimate percent conversion of ATP to ADP, mixtures of ATP and ADP (total concentration 0.4 mM) were tested in duplicate, containing 0, 3, 5, 10, 30, 50, 70, and 100% ADP. The luminescence value at 10% ADP corresponded to the luminescence generated by 4 nM GCK (Figure S7). The ADP-Glo™ kit is linear throughout the range tested and provides an excellent range of detection.
The effects of GKRP inhibition were then assessed using the same reaction conditions at pH 7.1. ADP generation was measured using a matrix of five concentrations each of GCK and GKRP (0, 5, 10, 15, and 20 nM) in quadruplicate ( Figure 5A ). Reactions were incubated for 75 minutes. Luminescence of 15 nM GCK was reduced by approximately 60% by 15 nM GKRP, and the mean S/B at 15 nM GCK +15 nM GKRP was 3.7.
Accordingly, the bioluminescence reaction was capable of measuring GCK enzymatic activity and its inhibition by GKRP. We therefore pursued miniaturization of the assay to 1536-well plate format and tested the effects of S6P and F1P in three different assay formats: 0.04 mM ADP in the absence of GCK and GKRP, 4 nM GCK, and 15 nM GCK with 15 nM GKRP ( Figure 5B ). All assays provided robust luminescence signal in the absence of F1P or S6P (S/B >4.0).

SMILES | LOPAC1280 screen outcome (15 nM GCK, 15 nM GKRP) | EC50 (15 nM GCK, 15 nM GKRP, 75 minutes, mean ± SD, read-out: EC50 (activation of GCK enzymatic reaction, increase in luminescence)) [µM] | response across formats (ADP only, GCK only, GCK-GKRP) | IC50 (15 nM GCK, 15 nM GKRP, 75 minutes, mean ± SD, read-out: IC50 (decrease in luminescence)) [µM]
O=C(O)C1=CC(=C(c2ccc(O)c(C(=O)O)c2)c2ccc(O)c(C(=O)O)c2)C=CC1=O [ATA, aurintricarboxylic acid] | inhibitors of the GCK-GKRP interaction |  |  | 
O=C(COP(=O)(O)O)[C@@H](O)[C@H](O)[C@H](O)CO [F1P, fructose 1-phosphate] |  | 1 ± 0.2 | dependent on the presence of GKRP | 
O=P(O)(O)OC[C@@H](O)[C@@H](O)[C@H](O)[C@@H](O)CO [S6P, sorbitol 6-phosphate] |  |  | dependent on the presence of GKRP | 0.005 ± 0.0006
Cc1ccc(C(=O)Nc2ccc(S(=O)(=O)O)c3cc(S(=O)(=O)O)cc(S(=O)(=O)O)c23)cc1NC(=O)c1cccc(NC(=O)Nc2cccc(C(=O)Nc3cc(C(=O)Nc4ccc(S(=O)(=O)O)c5cc(S(=O)(=O)O)cc(S(=O)(=O)O)c45)ccc3C)c2)c1 [suramin sodium salt] | inhibitors of the GCK-GKRP interaction |  |  | 
